We go through 10 molecules from patent publication US12209072B2, “Cyclopentyl acids as LPA antagonists” (BRISTOL-MYERS SQUIBB COMPANY, priority 2018, dated 2025).

Broadly, the IC50 is the point on the concentration scale where inhibition reaches its midpoint.

The subject of test [1] is nerve-injured mice. Particulars: pretreatment; cited from earlier work.
Test [2] has as its system mouse epithelial renal cell line, MCT. The note with it: co-treatment with LPA, MCT cells; cited from earlier work.
Test [3] has as its system human foetal lung fibroblasts. The note with it: cited from earlier work.
Test [4] has as its system UUO mice. The note with it: compared with LPA1 (-/-) mice; cited from earlier work.
Test [5] deals with highly peritoneal metastatic pancreatic cancer cell line. The note with it: cited from earlier work.
In test [6] the test system is pancreatic cancer cell lines. The note with it: cited from earlier work.
For test [7], the target named is T1, human LPA1 (Homo sapiens, UniProt Q92633).
T1 construct: expressed in transfected cells; host or cells: Chinese hamster ovary (CHO) cells
The experiment in a line: LPA1 functional antagonist assay (LPA-induced calcium flux). In kind it is cell-based. The note with it: CHO cells overexpressing human LPA1; inhibition of calcium flux induced by 10 nM LPA; read-out: hLPA1 IC50. Put shortly: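 CHO cells overexpressing human LPA1, loaded with calcium dye, given compound (0.08 nM–5 μM final, 0.5% DMSO) for 20 min at room temperature in HBSS/HEPES with 0.1% fatty-acid-free BSA, then stimulated with 10 nM LPA. IC50 defined as 50% inhibition of LPA-induced calcium flux, from 4-parameter logistic fit.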
On the technique in general: A change in cytosolic calcium serves as a functional read-out for many receptors and channels.

T1 sequence (Q92633 whole entry): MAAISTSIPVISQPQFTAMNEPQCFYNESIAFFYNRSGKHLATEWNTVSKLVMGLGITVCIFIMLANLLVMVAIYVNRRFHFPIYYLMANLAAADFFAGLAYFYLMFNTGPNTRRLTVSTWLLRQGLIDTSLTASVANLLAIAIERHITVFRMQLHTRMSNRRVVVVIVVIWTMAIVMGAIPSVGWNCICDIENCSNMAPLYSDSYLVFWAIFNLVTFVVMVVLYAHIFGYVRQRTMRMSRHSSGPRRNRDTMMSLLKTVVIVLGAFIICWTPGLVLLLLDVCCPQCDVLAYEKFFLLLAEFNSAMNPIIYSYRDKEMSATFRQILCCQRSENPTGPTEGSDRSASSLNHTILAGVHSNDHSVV

On to `C[C@@H](N)[C@H]1CC[C@H](C(=O)Nc2ccncc2)CC1` [Example Y-27632], for which the allodynia and hyperalgesia entry in test [1] is given as “completely abolished”.
For `Cc1noc(-c2ccc(CSCCC(=O)O)cc2)c1NC(=O)OC(C)c1ccccc1Cl` (centres unmarked) [Ki16425], the “LPA-induced increase in expression of the profibrotic cytokine CTGF” value in test [2] is recorded as “almost completely suppressed”. Moreover, the “chemotaxis of human foetal lung fibroblasts induced by BAL obtained from IPF patients” value in test [3] is “blocked”. In addition, the “development of renal fibrosis in UUO mice” value in test [4] is recorded as “closely resembled the profile of LPA1 (−/−) mice”. For the same molecule, the “LPA-induced and ascites-induced invasion activity” value in test [5] is listed as “blocked”. In addition, in test [6], the “in vitro migration in response to LPA and peritoneal fluid (ascites) from pancreatic cancer patients” value is listed as “effectively blocked”.
On to `Cc1nc(-c2nnn(C)c2COC(=O)N(C)CC2CCC2)ccc1O[C@H]1CC[C@H](CC(=O)O)C1` (single isomer, unassigned) [Example 6, (±)-Trans-2-((1,3)-3-((6-(5-((((cyclobutylmethyl)(methyl)carbamoyl)oxy)methyl)-1-methyl-1H-1,2,3-triazol-4-yl)-2-methylpyridin-3-yl)oxy)cyclopentyl) acetic Acid], for which the IC50 in test [7] stood at 11 nM.
Still for that read-out and setting: for `Cc1nc(-c2nnn(C)c2COC(=O)N(C)CC(C)C)ccc1O[C@H]1CC[C@H](CC(=O)O)C1` (racemic) [Example 55, (±)-trans-2-[3-({2-methyl-6-[1-methyl-5-({[methyl(2-methylpropyl)carbamoyl]oxy}methyl)-1H-1,2,3-triazol-4-yl]pyridin-3-yl}oxy)cyclo-pentyl]acetic acid] the value was 135 nM; for `Cc1noc(-c2ccc(O[C@H]3CC[C@@H](C(=O)O)C3)cc2)c1NC(=O)O[C@H](C)c1ccccc1` (single isomer, unassigned) [Example 1], 104 nM; for `Cc1nc(-c2nnn(C)c2CNc2nccc(-c3ccccn3)n2)ccc1O[C@@H]1CC[C@@H](CC(=O)O)C1` (relative stereo) [Example 38, 2-(trans-3-((2-methyl-6-(1-methyl-5-(((4-(pyridin-2-yl)pyrimidin-2-yl)amino)methyl)-1H-1,2,3-triazol-4-yl)pyridin-3-yl)oxy)cyclopentyl)acetic acid], 579 nM.
Take `CCCCN(C)C(=O)OCc1c(-c2ccc(O[C@@H]3CC[C@@H](CC(=O)O)C3)c(CC)n2)nnn1C` (racemic) [Example 86, (±)-2-((trans)-3-((6-(5-(((butyl(methyl)carbamoyl)oxy)methyl)-1-methyl-1H-1,2,3-triazol-4-yl)-2-ethylpyridin-3-yl)oxy)cyclopentyl)acetic acid]: the IC50 in test [7] amounted to 48 nM.
On to `CCC1(COC(=O)NCc2c(-c3ccc(O[C@H]4CC[C@H](CC(=O)O)C4)c(C)n3)nnn2C)CC1` (racemic) [Example 60, (±)-trans-2-[3-[(6-{5-[({[(1-ethyl-cyclopropyl)methoxy]carbonyl}amino)methyl]-1-methyl-1H-1,2,3-triazol-4-yl}-2-methylpyridin-3-yl)oxy]cyclopentyl]acetic acid], for which the 50% inhibitory concentration (IC50) in test [7] was 264 nM.
In the case of `CN(CC1CCC1)C(=O)OCc1c(-c2ccc(O[C@@H]3CC[C@@H](C(=O)O)C3)cn2)nnn1C` (racemic) [Example 25, (±)-trans-3-((6-(5-((((cyclobutyl-methyl)(methyl)carbamoyl)oxy)methyl)-1-methyl-1H-1,2,3-triazol-4-yl)pyridin-3-yl)oxy)cyclopentane carboxylic acid], the IC50 in test [7] is 354 nM.
In the case of `Cc1noc(-c2ccc(OC[C@@H]3CC[C@H](C(=O)O)C3)cn2)c1CNc1nccc(-c2ccccn2)n1` (relative stereo) [Example 33, cis-3-(((6-(3-methyl-4-(((4-(pyridin-2-yl)pyrimidin-2-yl)amino)methyl)isoxazol-5-yl)pyridin-3-yl)oxy)methyl)cyclopentane-1-carboxylic acid], in test [7], the IC50 was 40 nM.
